Experimental findings from US6890517B2, “Inhalable formulation of a solution containing a tiotropium salt” (Boehringer Ingelheim Pharma KG, priority 2000, dated 2005) are described below.

This data set in a line: stability of budesonide dissolved in water/ethanol at low pH. Format: physicochemical. To be noted: pH of 3.5; dissolved in a mixture of water and ethanol. As for the experimental part: In the case of steroids, these are preferably used in suspended form, especially fluticasone. This is particularly true if the solvent used is only water without ethanol. If ethanol is added, the steroid may also be formulated as a solution.

`CCCC1O[C@@H]2C[C@H]3[C@@H]4CCC5=CC(=O)C=C[C@]5(C)[C@H]4[C@@H](O)C[C@]3(C)[C@]2(C(=O)CO)O1` (stereo partly shown) [budesonide]: the stability in solution result is listed as “sufficiently stable”.
